For data set [1], the system named is SK-N-AS cells. Description: ALAMARBLUE assay of plated cells after freeze-thaw of suspended cells. The conditions noted are these: for cell viability after freeze-thawing on decreasing the concentration of PBS: hypotonic conditions, FIG. 11. In kind it is cell-based, Human. Here is the method:
The cells were plated on a 96-well plate in a density of 2.25×10^5 cells/cm^2 and diluted with medium to the final volume of 200 μL inside the well. The cells were then incubated overnight at 37° C. and 5% CO2 so they attached to the wells. Cells were stained with 10 μL ALAMARBLUE® reagent per 100 μL of medium in the well and incubated for 4 h. Same procedure was applied for a blank, where 200 μL of medium was pipetted into the well. After that, 100 μL of solution above the cells was pipetted into a black non-transparent 96-well plate and fluorescence was measured with SPECTRAMAX® plate reader (excitation λ=550 nm, emission λ=590 nm).
(§1) Formulations were prepared in 50 mL Falcon tubes and subsequently sterile filtered under the bench with 0.22 μm syringe filter and a syringe. Sterile formulations were then stored at 2-8° C. until further use. 0.5 mL of cell suspension in either PBS or medium at a concentration of 20*10^6 cells/mL was mixed with 0.5 mL of pre-warmed sterile formulation. Vials were then stoppered and stored in a −80° C. freezer for minimum overnight.
(§2) Subsequently, the vials were taken from the −80° C. freezer and rapidly thawed in the water bath at 37° C. Immediately after thawing, 0.1 mL of cell suspension was 2× diluted with medium and counted with NucleoCounter to obtain cell viability [%] and concentration inside the vial. Suspension was then plated on a 96-well plate so the cell density was 2.25×10^5 cells/cm^2 (growth area in one well is 0.32 cm^2). Calculation of the volume (V) of cell suspension is according to following equation: […]
Calculated volume was diluted inside of the well with cell growth medium, so that the final volume was 0.2 mL. 96-well plate with samples was incubated overnight in the incubator and ALAMARBLUE® assay was performed the morning after (if not stated differently in the results section).
ALAMARBLUE® on the other hand, contains a reagent called resazurin. This is a non-toxic, blue, weakly fluorescent dye, which can permeate cell membranes. Resazurin undergoes a metabolic reduction inside of the cell to a form called resorufin, which is pink and highly fluorescent. The intensity of fluorescence is proportional to the amount of cells that are able to metabolize resazurin and are thus considered viable.
(The colour change of resazurin is a common sign of viable cells or microbes.)

Data set [2] deals with SK-N-AS cells. In words: DAPI/acridine orange viability (NUCLEOCOUNTER) directly after freeze-thaw. To be noted: directly after thawing, FIG. 6. It counts as cell-based, Human. Here is the method: 200 μL of cell suspension was pipetted into 1.5 mL Eppendorf tube and diluted with medium. Diluted suspension was then pipetted with VIAL-[…]™ and inserted into the NUCLEOCOUNTER® for measurement.
as §1, §2
Next, we compared two methods for determining viability and noticed a large discrepancy in obtained results (FIG. 5 and FIG. 6). The reason for this is the difference in underlying principles of viability assessment of both methods. As previously, DAPI/acridine orange staining is performed using NUCLEOCOUNTER®, which is an integrated fluorescence microscope with dual fluorescence channels. One is for staining with acridine orange and the other with DAPI dye. They both bind to DNA and label cellular nuclei with high specificity. Acridine orange can permeate the cell membrane and is used for cell detection, while DAPI cannot permeate the membrane and binds only to nuclei of dead cells with disrupted membrane. Thus, the cell viability according to the DAPI/acridine orange method, is mostly based on the integrity of cell membranes. Dyes are fluorescent and therefore visible when using fluorescence filters in microscope, while cell debris and other particles without DNA are not visible. The software then identifies and analyses the individual cells (even within smaller aggregates) and calculates the viability, by comparing the ratio of signal with Acridine Orange and DAPI staining (according to equation below).

The nature of data set [3]: Freeze drying, visual inspection of lyophilization cake. In kind it is physicochemical. The conditions noted are these: 1M propylene glycol and 0.1M trehalose formulation; FIG. 21B. Here is the method:
Freeze drying was performed with the SP Scientific's LyoStar 3 pilot scale freeze dryer with 0.4 m^2 of shelf surface area. Vials were filled and loaded on a tray under the biosafety bench and then loaded in the freeze dryer. Vials were left on the tray inside the lyophilizer, to avoid any spillage of biomaterial inside the chamber in case of a vial breakage.
Employed conservative lyophilization programs (Table 3 and Table 4) included freezing and primary drying steps. Since it is known from literature, that complete elimination of water and higher temperatures employed during secondary drying negatively impact the cell survival during process, the step was omitted. The product temperature was monitored by including a thermocouple inside the vial, so that its tip touched the bottom of the vial. After unloading of the vials from the lyophilizer, they were visually inspected.

`C[S+](C)[O-]` [DMSO, Dimethyl Sulfoxide, reference compound]: in the data set on SK-N-AS cells [1] (5% DMSO, internal data), the “cell viability compared to the untreated control” value is reported as “over 80%”.

On to `OCCO` [ethylene glycol, Ethylene glycol], for which the “densities of plated cells after thawing, 1M ethylene glycol vs 1M propylene glycol” value with SK-N-AS cells [1] (1M, FIG. 8B) is reported as “not significantly different”. For the same compound, in the data set on SK-N-AS cells [1] (formulation in medium, P<0.05), the “cell density after thawing vs propylene glycol, ANOVA and t-test” value is reported as “significantly worse than propylene glycol”. Besides, the “cell viability after freeze-thawing on decreasing the concentration of PBS” value in the data set on SK-N-AS cells [1] is “decrease in cell viability”.

Take `OCC(O)CO` [glycerol, Glycerol]: the “cell density after freeze-thaw compared with 5% DMSO formulation in medium” value in the data set on SK-N-AS cells [1] (glycerol formulation in medium, FIG. 8A) is “not significantly worse than 5% DMSO formulation”.

Consider `CC(O)CO` (centres unmarked) [propylene glycol, Propylene glycol], for which the “viability after FT of cells (DAPI/acridine testing)” value in the data set on SK-N-AS cells [2] (0.1M propylene glycol) is “around 50%”; in the data set on SK-N-AS cells [2] (0.2M propylene glycol), “around 50%”; in the data set on SK-N-AS cells [2] (1M propylene glycol) it was roughly 100%; with SK-N-AS cells [2] (2M propylene glycol), roughly 100%. In addition, in the data set with SK-N-AS cells [1] (1M concentration, FIG. 7B), the “optimisation of propylene glycol concentration, viability by ALAMARBLUE” value is “most favourable”. Besides, the “relative viability to control (untreated cells) after freeze thawing” value in the data set with SK-N-AS cells [1] (5% (v/v) in cell medium, FIG. 7A) is “efficient in protecting the cells compared to other tested excipients”. In addition, the “cell viability of treated cells relative to untreated cells (metabolic assay)” value in the data set on SK-N-AS cells [1] (after FT, compared with DAPI/acridine results, FIG. 5) was “much lower cell viability”. Besides, in the data set on SK-N-AS cells [1], the “cell viability after freeze-thawing on decreasing the concentration of PBS” value is “decrease in cell viability”. The appearance of lyophilizate result in data set [3] was “remained in liquid form”.

Values taken from patent US20220338463A1, “METHOD OF PRODUCING LYOPHILIZED CELLS” (LONZA LTD, priority 2019, published 2022).
